Measured values: publication PMC10216263, “Favorable Preclinical Pharmacological Profile of a Novel Antimalarial Pyrrolizidinylmethyl Derivative of 4-amino-7-chloroquinoline with Potent In Vitro and In Vivo Activities” (Biomolecules, 2023)

What was measured:
in vivo [1] = experiment: in vivo; set-up: species or system male Sprague Dawley rats; details: male, Sprague Dawley, rat
Description: The formulations were prepared on the days of dosing, immediately before administration. MG3 for IV administration was formulated as in situ dimesylate salt, in 5% of glucose solution (4 mg/mL nominal concentration), while for oral administration it was prepared by suspending the test item in 0.5% methocel solution (v/v) (6 mg/mL nominal concentration). […] After 5-days postoperative recovery period, MG3 was administered and serial blood samples (about 0.3 mL) were collected from femoral vein using heparinized syringe at 5, 15, and 30 min, 1, 3, 6, 24-, 48-, 72- and 96-hours post-dosing after IV administration and at 15, and 30 min, 1, 3, 6 and 24-, 48-, 72- and 96-hours post-dosing after oral administration. The samples were then transferred into pre-cooled tubes protected from light and centrifuged at 3000 rpm for 4 min at +4 °C to collect plasma, and single aliquots of plasma were stored at −80 °C until analysis. Sample analysis: 400 µL of methanol was added to 10 µL of plasma in a 96-well plate; after centrifugation for 15 min at 2000 rpm at 6 °C, an aliquot of 360 µL of supernatant was transferred into a new 96-well plate and dried at 40 °C. Sample extracts were reconstituted with a volume of 150 µL of a mixture solution of 10 mM ammonium formate pH 3.5:methanol (90:10; v/v) and centrifuged for 3 min at 2000 rpm at 6 °C and the supernatant was injected onto the LC-MS/MS system. A HP1100 HPLC with a Synergy 4 um Hydro-RP 80A 2.0 × 50 mm column, coupled with AB/MDS Sciex 4000 QTrap in positive ion mode was utilized for analysis; 10 µL samples were injected, a gradient with 10 mM ammonium formate pH 3.5 and methanol was utilized. Data obtained were analyzed using the non-compartmental approach (Watson package v. 6.4.0.04, Thermo Fisher Scientific, Waltham, MA, USA).

[2] = tested on: Salmonella typhimurium TA98, TA100 and Escherichia coli WP2 uvrA; experiment: Bacterial Reverse Mutation Assay, overall; details: with or without rat liver S9, up to 1000 per plate
Description: using the preincubation method (30 min, 37°C) with and without phenobarbital-5,6-benzoflavone induced
MG3 was dissolved in distilled water (H2O) at
the maximum concentration of 40 mg/mL and tested in a preliminary range-finding test in all strains of
metabolic activation to determine the toxicity of the compound.

[3] = Tissue distribution in rat; assay type: in vivo, female Sprague Dawley rats; details: single oral 120 mg/kg
Description: Female Sprague Dawley rats (Charles River, Italy) (2–4/time points) were orally administered with a single dose of 120 mg/kg of MG3 at a constant dose volume of 10 mL/kg; dose and gender were selected based on previous toxicological studies. Two female rats were included as untreated controls. Plasma samples and tissues, i.e., adrenal glands, hearth, kidney, liver, lung, lymph nodes, spleen, ovaries, thymus, and skeletal muscle were collected at 4, 24, 48, 72 and 96 h after administration by animals killed by exsanguination under sodium thiopental anesthesia. Blood was put in heparinized plastic tubes kept on ice-water bath, then centrifuged (10 min, 1200 rpm, +4 °C). One aliquot of about 100 µL of plasma was stored at –80 °C until analysis. Samples of selected organs/tissues were collected, put in plastic cassettes and frozen over liquid nitrogen. Then, organs were thawed out, weighted, and sliced. Homogenates were prepared with ultrasonication on ice in Dulbecco buffer (10 μL/mg of tissue). The addition of 400 μL of methanol to 10 μL of homogenate in a 96-well plate allowed the precipitation of proteins. After capping and vortex mixing, the plate was centrifuged for 15 min at 3700 rpm at 6 °C, and an aliquot of 360 μL of supernatant transferred to a new plate and dried down under nitrogen stream (40 °C). The extract was reconstituted in 150 μL of 10 mM ammonium formate pH 3.5: methanol (90:10, v/v) and analyzed using the LC-MS-MS method, as described in Pharmacokinetic studies in rat paragraph. 1 ng/mL and 10 ng/g were the lower limits of quantitation for plasma and tissue, respectively.

CYP2C9 = CYP2C9 (Homo sapiens, UniProt P11712); experiment: in vitro
Sequence of CYP2C9 (P11712 whole entry): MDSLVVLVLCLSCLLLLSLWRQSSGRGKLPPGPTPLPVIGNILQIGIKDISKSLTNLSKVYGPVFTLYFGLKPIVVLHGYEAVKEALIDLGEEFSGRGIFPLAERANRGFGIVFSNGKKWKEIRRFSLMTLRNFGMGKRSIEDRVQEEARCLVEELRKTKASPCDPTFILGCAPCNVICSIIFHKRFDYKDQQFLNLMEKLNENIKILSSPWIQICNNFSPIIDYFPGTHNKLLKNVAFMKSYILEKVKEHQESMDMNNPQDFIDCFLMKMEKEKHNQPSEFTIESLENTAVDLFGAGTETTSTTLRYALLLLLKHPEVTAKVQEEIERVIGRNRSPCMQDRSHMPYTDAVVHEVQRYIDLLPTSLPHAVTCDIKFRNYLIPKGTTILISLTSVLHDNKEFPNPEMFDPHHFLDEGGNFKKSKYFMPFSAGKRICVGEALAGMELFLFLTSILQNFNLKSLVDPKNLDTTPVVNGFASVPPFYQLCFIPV

P. falciparum 3D7 (CQ-S) = experiment: In vitro antimalarial activity, [3H]-hypoxanthine incorporation (LSHTM); assay type: cell-based; details: Plasmodium falciparum, 3D7; 72 h, [3H]-hypoxanthine incorporation, mean of 3 experiments; read-out: P. falciparum IC50 nM, 3D7 (CQ-S)
[4] = Blood to plasma partitioning; assay type: in vitro ADME; details: male, whole blood, human blood, up to 30 min
Description: Plasma protein binding was performed via ultrafiltration (30,000 D cutoff, Amicon, Merck) with heparinized blood samples (male SD rats, Charles River Italy, and male Beagle dogs, Marshall Farms, Europe, Lyon, France) and fresh and frozen heparinized human blood samples collected from fasted healthy male subjects (at least two subjects for plasma samples), were supplied by AAI, Germany. MG3 final concentrations of 100, 300 and 1000 ng/mL were prepared using a 10 mg/mL stock solution while control samples at the same concentrations diluted in DPBS buffer (Dulbecco’s Phosphate Buffered Saline, Sigma-Aldrich) to evaluate the recovery. […] The percentage of bound drug (% Fbound) and of unbound drug (% Ffree) was determined using the following equations: % Fbound = [(Conc. Total–Conc. Free)/Conc. […] Total is the compound concentration determined in plasma and Conc. Free is the compound concentration determined in the ultrafiltrated samples. Results were expressed as % of binding and % of free fraction (single values and mean ± SD). […] Blood to plasma ratio was calculated as: Conc. in blood/Conc. in plasma; where, Conc. is the compound concentration determined in blood and in plasma at the same time of incubation.

in vivo [5] = details: CD1, mouse, po, 10 mg/kg, AUClast

## Clc1ccc2c(NCC34CCCN3CCC4)ccnc2c1 [MG3, 7-Chloro-N-((hexahydro-1H-pyrrolizin-7a-yl)methyl)quinolin-4-amine]
In vivo [1]; iv, 10 mg/kg
  AUC(0-inf): 1300 ± 223 ng·h/mL
  AUC(0-t): 1290 ± 217 ng·h/mL
  Cmax: 395 ± 118 ng/mL
  Vd: 59.9 L/kg
  clearance: 139 ± 20.2 mL/min/kg
  half-life: 7.7 ± 0.6 h
  tlast: 48.0 ± 0.1 h
In vivo [1]; po, 30 mg/kg
  AUC(0-inf): 4400 ± 633 ng·h/mL
  AUC(0-t): 4360 ± 630 ng·h/mL
  Cmax: 213 ± 23.7 ng/mL
  half-life: 10.7 ± 1.2 h
  still detectable in the plasma up to: 72 to 96 h
  tlast: 80.0 ± 13.9 h
[2]
  mutagenicity judgement: non-mutagenic
[3]
  tissues with the highest concentration: lungs and ovaries
[3]; all time points 4–96 h
  concentration in tissues versus plasma: higher than in plasma
[3]; post dose
  detected in all the analyzed tissues up to: 96 h
CYP2C9
  inhibition at 3 µM: 8.8 ± 2.2%
P. falciparum 3D7 (CQ-S)
  IC50: 12.6 nM
[4]
  blood plasma ratio at 300 ng/mL: ~1
In vivo [5]
  AUC(0-t): 1030 ng·h/mL
